Data reported in ChEMBL document CHEMBL1201862, “PubChem BioAssay data set” (2004).
Activity calls are given as the source filed them.

How the values were obtained:
CHO-K1 = assay: (§1) Counterscreen for antagonists of the orexin 1 receptor (OX1R; HCRTR1): Homogeneous time resolved fluorescence (HTRF)-based cell-based dose response assay to identify antagonists of the parental CHO-K1 cell line. [Related pubchem assays (depositor defined):AID434989, AID435008, AID463079, AID485270, AID492963, AID492964, AID492965, AID493232, AID504699, AID504701]; assay type: functional; conditions: Cricetulus griseus
[1] = as §1, with “Fluorescence-based” for “Homogeneous time resolved fluorescence (HTRF)-based”, “cell-based high throughput” for “cell-based”, “CHO” for “CHO-K1”; assay type: functional
[2] = target: T1, Orexin/Hypocretin receptor type 1 (Homo sapiens, UniProt O43613); assay: Homogeneous Time Resolved Fluorescence (HTRF)-based cell-based high throughput dose response assay for antagonists of the orexin 1 receptor (OX1R; HCRTR1). [Related pubchem assays (depositor defined):AID434989, AID435008, AID463079, AID485270, AID492963, AID492964, AID492965, AID493232, AID504717, AID504718]; assay type: functional
T1 sequence (O43613 whole entry): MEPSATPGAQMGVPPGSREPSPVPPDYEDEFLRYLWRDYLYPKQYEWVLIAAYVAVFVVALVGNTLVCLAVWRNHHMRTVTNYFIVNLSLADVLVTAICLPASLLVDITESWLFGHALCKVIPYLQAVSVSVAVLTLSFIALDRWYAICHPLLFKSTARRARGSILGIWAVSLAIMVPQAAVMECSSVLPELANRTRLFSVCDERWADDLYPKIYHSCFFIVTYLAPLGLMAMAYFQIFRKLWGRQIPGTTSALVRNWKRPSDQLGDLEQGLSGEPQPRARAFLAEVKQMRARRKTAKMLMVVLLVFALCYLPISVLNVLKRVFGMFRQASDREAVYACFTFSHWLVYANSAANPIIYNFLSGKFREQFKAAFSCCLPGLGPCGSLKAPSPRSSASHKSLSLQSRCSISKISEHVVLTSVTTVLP

[3] = target: T1, Orexin/Hypocretin receptor type 1; assay: Fluorescence-based cell-based high throughput dose response assay for antagonists of the orexin 1 receptor (OX1R; HCRTR1). [Related pubchem assays (depositor defined):AID434989, AID435008, AID463079, AID485270, AID492963, AID492964, AID492965, AID493232, AID504717, AID504718]; assay type: functional
Orexin receptor type 2 [4] = target: T2, Orexin receptor type 2 (Homo sapiens, UniProt O43614); assay: Counterscreen assay for antagonists of the orexin 1 receptor (OX1R; HCRTR1): Fluorescence-based cell-based dose response assay for antagonists of the orexin 2 receptor (OX2R; HCRTR2), run by assay provider.; assay type: functional
T2 sequence (O43614 whole entry): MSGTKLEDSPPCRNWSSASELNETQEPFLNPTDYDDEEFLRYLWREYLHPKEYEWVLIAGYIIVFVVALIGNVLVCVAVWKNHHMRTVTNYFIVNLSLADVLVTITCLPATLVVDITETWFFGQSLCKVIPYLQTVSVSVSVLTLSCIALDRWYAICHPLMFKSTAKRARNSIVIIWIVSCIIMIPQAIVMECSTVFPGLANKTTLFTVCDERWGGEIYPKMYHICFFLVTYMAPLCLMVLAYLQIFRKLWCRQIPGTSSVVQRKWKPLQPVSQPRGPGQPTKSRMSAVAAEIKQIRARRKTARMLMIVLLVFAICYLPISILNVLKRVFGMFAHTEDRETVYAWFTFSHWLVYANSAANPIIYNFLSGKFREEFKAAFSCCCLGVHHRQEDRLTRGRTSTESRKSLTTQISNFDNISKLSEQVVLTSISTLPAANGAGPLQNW

Orexin receptor type 2 [5] = target: T2, Orexin receptor type 2; assay: Counterscreen assay for antagonists of the orexin 1 receptor (OX1R; HCRTR1): Homogeneous Time Resolved Fluorescence (HTRF)-based cell-based dose response assay for antagonists of the orexin 2 receptor (OX2R; HCRTR2), run by assay provider.; assay type: functional
Kallikrein-7 = Kallikrein-7 (Homo sapiens, UniProt P49862); assay: Fluorescence Intensity-based biochemical primary high throughput dose response assay to identify activators of kallikrein-7 (K7) zymogen.
cells [6] = conditions: HEK293
HEK293 = assay: cells; assay type: functional, cell-based; conditions: Homo sapiens
[7] = target: T3, Nuclear receptor subfamily 0 group B member 1 (Homo sapiens, UniProt P51843); assay: Luminescence-based cell-based high throughput dose response assay for inhibitors of the orphan nuclear receptor subfamily 0, group B, member 1 (DAX1; NR0B1). [Related pubchem assays (depositor defined):AID504766, AID504790]; assay type: functional
T3 sequence (P51843 whole entry): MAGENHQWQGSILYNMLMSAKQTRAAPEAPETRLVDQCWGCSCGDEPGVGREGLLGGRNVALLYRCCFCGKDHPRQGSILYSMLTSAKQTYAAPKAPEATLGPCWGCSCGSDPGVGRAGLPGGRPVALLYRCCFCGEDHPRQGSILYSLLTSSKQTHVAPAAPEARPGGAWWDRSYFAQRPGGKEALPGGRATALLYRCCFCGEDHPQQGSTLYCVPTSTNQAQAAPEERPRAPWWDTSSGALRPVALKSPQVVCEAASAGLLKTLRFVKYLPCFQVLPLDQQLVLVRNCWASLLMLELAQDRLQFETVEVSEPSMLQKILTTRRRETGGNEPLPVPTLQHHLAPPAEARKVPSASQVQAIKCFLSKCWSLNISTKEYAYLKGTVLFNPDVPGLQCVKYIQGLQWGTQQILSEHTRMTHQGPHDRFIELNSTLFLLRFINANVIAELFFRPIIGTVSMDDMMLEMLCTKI

[8] = target: Disintegrin and metalloproteinase domain-containing protein 17 (Homo sapiens, UniProt P78536); assay: exosite inhibitors of ADAM17, dose response, biochemical (AID 743260)
[9] = ADAM10 protease inhibitors, dose response, selectivity assay for ADAM17 exosite inhibitor project, biochemical, FRET peptide substrate, recombinant human ADAM10 (AID 743259);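 also: ADAM10 enzyme cleaving a FRET peptide substrate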
cells [10] = assay: cells
[11] = Shn3 3'UTR reporter inhibitors, dose response, cell-based, Clone20 osteoblasts, firefly luciferase, cherry-picked (AID 624132); assay type: functional;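 also: firefly luciferase luminescence from reporter carrying the Shn3 3'UTR in osteoblasts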
[12] = control 3'UTR Renilla luciferase suppression, dose response, counter-screen for Shn3 inhibitor project, cell-based, Clone20-Shn3RL, cherry-picked (AID 624133); assay type: functional
[13] = reduction of Shn3 3'UTR firefly luciferase signal, dose response, Schnurri-3 inhibitor project, cell-based, Clone20 osteoblasts, cherry-pick, set 2 (AID 720490); assay type: functional;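 also: actives lower the luminescence signal as inhibitors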
[14] = inhibitors of control Renilla luciferase reporter, dose response, counter-screen for Shn3 3'UTR targeting project, Clone20-Shn3RL cells, dual-Glo, cherry-pick, set 2 (AID 720724); assay type: functional, cell-based; conditions: Dual-Go Shn3RL
[15] = YAP1 pathway inhibition via CTGF transcript levels, dose response, cell-based, DLD1 colon cancer, RT-qPCR, cherry-pick (AID 1053122); assay type: functional; conditions: Cancer cell lines
Fatty acid synthase = Fatty acid synthase (Homo sapiens, UniProt P49327); assay: FAS thioesterase domain inhibitors, SAR follow-up, biochemical, endpoint fluorescence intensity, powder samples (AID 652164); assay type: functional
Sequence of Fatty acid synthase (P49327 whole entry, the tested form may be a part): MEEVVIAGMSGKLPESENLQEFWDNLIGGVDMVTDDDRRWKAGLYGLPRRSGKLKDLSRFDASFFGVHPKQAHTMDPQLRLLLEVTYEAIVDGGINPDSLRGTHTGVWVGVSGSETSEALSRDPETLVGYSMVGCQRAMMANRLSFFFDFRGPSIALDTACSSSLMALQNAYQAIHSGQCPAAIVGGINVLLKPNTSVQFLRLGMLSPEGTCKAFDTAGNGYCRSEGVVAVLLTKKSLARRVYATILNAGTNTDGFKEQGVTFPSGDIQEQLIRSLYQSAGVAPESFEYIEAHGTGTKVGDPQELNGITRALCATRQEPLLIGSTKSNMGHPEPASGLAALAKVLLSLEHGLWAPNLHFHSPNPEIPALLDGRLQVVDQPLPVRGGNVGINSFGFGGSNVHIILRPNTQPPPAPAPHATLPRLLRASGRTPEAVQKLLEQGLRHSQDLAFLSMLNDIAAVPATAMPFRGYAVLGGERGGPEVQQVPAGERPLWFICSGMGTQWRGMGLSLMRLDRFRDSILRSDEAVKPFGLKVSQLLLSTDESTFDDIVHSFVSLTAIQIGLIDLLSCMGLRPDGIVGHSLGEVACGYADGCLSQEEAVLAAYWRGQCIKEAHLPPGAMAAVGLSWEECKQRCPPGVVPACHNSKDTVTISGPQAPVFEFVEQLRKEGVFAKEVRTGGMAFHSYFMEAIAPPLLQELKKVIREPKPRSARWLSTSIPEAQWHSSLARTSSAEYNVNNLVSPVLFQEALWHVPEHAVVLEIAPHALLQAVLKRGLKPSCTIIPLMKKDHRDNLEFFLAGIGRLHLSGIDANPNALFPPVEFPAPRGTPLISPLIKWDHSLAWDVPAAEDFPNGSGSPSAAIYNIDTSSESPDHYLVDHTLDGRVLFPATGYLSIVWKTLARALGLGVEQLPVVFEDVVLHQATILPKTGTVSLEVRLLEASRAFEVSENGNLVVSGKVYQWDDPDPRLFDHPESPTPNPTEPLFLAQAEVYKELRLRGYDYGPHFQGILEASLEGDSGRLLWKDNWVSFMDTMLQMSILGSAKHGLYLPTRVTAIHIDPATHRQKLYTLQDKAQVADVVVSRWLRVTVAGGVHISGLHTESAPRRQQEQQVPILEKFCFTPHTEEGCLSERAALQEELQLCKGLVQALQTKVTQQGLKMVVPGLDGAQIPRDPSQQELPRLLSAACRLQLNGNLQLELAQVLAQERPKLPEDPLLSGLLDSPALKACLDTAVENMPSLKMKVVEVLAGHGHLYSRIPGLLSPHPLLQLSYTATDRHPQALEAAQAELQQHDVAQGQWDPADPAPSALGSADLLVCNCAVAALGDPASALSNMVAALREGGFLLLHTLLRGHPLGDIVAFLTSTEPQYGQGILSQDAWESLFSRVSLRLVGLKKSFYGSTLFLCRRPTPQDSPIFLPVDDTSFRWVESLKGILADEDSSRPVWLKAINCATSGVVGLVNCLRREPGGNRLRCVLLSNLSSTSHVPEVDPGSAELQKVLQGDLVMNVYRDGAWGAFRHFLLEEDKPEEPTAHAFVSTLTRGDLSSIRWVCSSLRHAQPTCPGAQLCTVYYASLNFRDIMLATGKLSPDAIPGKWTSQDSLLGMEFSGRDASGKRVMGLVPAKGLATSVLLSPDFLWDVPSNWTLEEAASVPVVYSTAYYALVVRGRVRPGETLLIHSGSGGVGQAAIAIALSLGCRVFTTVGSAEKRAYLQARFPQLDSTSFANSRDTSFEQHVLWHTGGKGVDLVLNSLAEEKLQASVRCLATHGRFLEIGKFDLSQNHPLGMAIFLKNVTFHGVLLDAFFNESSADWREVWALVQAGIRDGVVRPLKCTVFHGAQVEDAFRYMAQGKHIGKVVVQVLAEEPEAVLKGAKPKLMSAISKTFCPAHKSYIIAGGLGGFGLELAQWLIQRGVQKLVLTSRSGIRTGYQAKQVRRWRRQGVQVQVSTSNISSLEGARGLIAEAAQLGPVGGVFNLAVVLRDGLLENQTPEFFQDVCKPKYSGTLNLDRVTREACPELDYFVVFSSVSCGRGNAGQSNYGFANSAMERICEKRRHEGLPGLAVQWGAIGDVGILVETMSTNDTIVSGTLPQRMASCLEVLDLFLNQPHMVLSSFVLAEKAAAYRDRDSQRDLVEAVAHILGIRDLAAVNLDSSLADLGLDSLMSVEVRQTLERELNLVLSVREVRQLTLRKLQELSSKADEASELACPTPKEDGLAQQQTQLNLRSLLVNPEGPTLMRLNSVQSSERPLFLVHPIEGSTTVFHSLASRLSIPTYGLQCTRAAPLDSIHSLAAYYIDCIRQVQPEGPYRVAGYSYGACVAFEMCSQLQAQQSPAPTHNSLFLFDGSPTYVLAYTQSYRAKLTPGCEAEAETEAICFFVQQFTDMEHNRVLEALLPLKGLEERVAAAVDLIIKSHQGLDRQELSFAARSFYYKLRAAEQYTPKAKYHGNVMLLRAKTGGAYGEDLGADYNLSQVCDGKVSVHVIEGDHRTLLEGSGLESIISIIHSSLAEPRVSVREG

Sequence of Disintegrin and metalloproteinase domain-containing protein 17 (P78536 whole entry, the tested form may be a part): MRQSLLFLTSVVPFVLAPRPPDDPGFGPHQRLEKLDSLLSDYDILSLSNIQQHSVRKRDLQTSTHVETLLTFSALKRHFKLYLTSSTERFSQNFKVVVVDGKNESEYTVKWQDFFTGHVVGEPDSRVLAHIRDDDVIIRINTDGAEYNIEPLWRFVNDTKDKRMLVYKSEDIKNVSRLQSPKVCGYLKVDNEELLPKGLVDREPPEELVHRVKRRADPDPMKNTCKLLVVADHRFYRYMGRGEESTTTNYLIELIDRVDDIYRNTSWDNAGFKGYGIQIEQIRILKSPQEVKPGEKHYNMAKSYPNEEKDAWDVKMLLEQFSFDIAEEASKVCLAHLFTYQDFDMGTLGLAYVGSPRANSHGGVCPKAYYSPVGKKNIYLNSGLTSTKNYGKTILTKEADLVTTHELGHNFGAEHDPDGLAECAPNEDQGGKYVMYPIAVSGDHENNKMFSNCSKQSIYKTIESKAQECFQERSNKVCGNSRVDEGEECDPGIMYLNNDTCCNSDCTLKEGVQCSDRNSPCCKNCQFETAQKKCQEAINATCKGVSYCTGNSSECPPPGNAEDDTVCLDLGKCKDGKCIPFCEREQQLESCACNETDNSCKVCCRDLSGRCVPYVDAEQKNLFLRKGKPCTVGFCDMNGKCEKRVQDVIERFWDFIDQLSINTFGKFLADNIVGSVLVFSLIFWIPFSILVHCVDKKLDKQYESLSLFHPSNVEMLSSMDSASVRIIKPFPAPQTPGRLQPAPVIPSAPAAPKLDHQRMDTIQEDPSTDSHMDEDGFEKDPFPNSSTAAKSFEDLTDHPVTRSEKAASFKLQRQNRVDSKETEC
Sequence of Kallikrein-7 (P49862 whole entry): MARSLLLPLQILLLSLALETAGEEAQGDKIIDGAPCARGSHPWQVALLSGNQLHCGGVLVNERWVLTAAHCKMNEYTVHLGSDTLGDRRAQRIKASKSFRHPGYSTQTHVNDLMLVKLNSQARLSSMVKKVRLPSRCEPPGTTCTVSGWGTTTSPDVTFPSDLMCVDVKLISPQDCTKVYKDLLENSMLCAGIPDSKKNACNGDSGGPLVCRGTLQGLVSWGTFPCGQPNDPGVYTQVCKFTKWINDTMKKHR

**Q.** What does the source list for `O=C(OC1CCOC1=O)c1ccc(-c2nc3ccccc3s2)s1` (centres undefined)?
**A.** IC50 (CHO-K1): 29.9 µM (inactive); IC50 [1]: > 49.8 µM (inactive); IC50 [2]: 1.98 µM (active); IC50 [3]: 9.49 µM (active); IC50 (Orexin receptor type 2 [4]): > 88.8 µM (inactive); IC50 (Orexin receptor type 2 [5]): 11.4 µM (inactive); EC50 (Kallikrein-7): > 69.5 µM (inactive)

**Q.** For `Cc1ccc2c(c1)-c1c(cnn1CC(=O)Nc1ccccc1N1CCN(C)CC1)CO2`, which AC50 (cells [6]) is on record?
**A.** 47.1 µM (active)

**Q.** Which results are given for `COCCOc1ccc(C(F)(F)F)cc1NC(=O)CN1C(=O)NC(C)(c2ccc3c(c2)OCO3)C1=O` (centres undefined)?
**A.** IC50 (HEK293): > 67.5 µM (inactive); IC50 [7]: > 67.5 µM (inactive); IC50 [8]: > 69.5 µM (inactive); IC50 [9]: 27.7 µM (inactive)

**Q.** For `CC(C)OCCCn1c(=N)c(C(N)=S)cc2c(=O)n3ccccc3nc21`, which AC50 (cells [10]) is on record?
**A.** 0.61 µM (active)

**Q.** With `COC(=O)C1=C(c2ccc(OCc3ccccc3)cc2)C[C@@H]2CC[C@H]1N2C(=O)NCCCCc1ccccc1` as the compound, how does the AC50 [11] read?
**A.** 2.8 µM (active)

**Q.** What about the AC50 [12] of the same compound?
**A.** 25.6 µM (active)

**Q.** What about the AC50 [13] of the same compound?
**A.** 10.3 µM (active)

**Q.** What about the AC50 [14] of the same compound?
**A.** 35.9 µM (active)

**Q.** With `CCc1nc(N2[C@H](CO)[C@@H](c3ccccc3-c3ccc(F)cc3)[C@@H]2C#N)sc1C` as the compound, how does the AC50 [15] read?
**A.** > 26 µM (inactive)

**Q.** Which IC50 (Fatty acid synthase) does the source give for `O=C(Nc1nc(-c2ccc(S(=O)(=O)N3CCOCC3)cc2)cs1)C1CCCC1` here?
**A.** > 80 µM (inactive)
